Counter-ions that a name gives are not always drawn.
Target: NDM-1 (Klebsiella pneumoniae, UniProt C7C422)
Test: biochemical
Details: NDM-1 2.5 nM, 100 μM imipenem as substrate, 100 μM ZnSO4, pH 7.5, 30° C.
Method: Amplification was carried out by a polymerase chain reaction (PCR) with Pyrobest DNA polymerase (Takara Bio) in which a plasmid having an NDM-1 gene sequence (GenBank Accession number: FN396876) synthesized by Life Technologies Japan Ltd. (consignment synthesis) was used as a template and two primers ([…] and […]) were used. The amplified DNA fragments were digested with restriction enzymes Nco I and Xho I and were incorporated in a vector pET-28a(+) to acquire a recombinant plasmid. The plasmid was transformed into E. coli BL21(DE3) (Novagen), and the transformants thus obtained were grown to an absorbance at 600 nm of about 0.7 in 0.8 L of an SB medium (1.2% (w/v) bacto tryptone, 2.4% (w/v) yeast extract, 0.5% (v/v) glycerol, 0.072 M dipotassium hydrogenphosphate, and 0.028 M potassium dihydrogenphosphate) containing 30 μg/ml kanamycin. Isopropyl-β-D-thiogalactopyranoside was added to a final concentration of 1 mM, and induction was carried out at 20° C. overnight, followed by harvesting with a centrifuge.
50 mM HEPES (pH 7.5), 20 μg/ml BSA, 100 μM ZnSO4, 2% DMSO, and 100 μM imipenem as a substrate (these concentrations being final concentration) were added into a 1 ml quartz cell. […] A plurality of inhibitor concentrations were studied, a sigmoid curve was prepared from each inhibitory activity, and IC50 values were calculated.

Sequence of NDM-1 (C7C422 29-270, looked up): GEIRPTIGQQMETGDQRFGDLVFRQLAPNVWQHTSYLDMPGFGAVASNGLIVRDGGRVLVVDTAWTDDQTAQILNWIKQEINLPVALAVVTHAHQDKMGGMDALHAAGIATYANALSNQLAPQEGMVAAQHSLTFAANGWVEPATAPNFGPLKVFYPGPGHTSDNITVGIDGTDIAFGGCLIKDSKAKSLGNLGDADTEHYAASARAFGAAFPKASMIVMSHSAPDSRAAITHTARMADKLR

| IC50 [µM] | SMILES |
| --- | --- |
| 10 to 30 | CCC/C(C(=O)O)=C(\CCC)C(=O)O [Example 2, Disodium 2,3-di-n-propylmaleate] |
| 10 to 30 | CC/C(C(=O)O)=C(\Cc1ccccc1)C(=O)O [Example 4, Disodium 2-benzyl-3-ethylmaleate] |
| < 10 | CC/C(C(=O)O)=C(\Cc1ccc(O)cc1)C(=O)O [Example 5, Disodium 3-ethyl-2-(4-hydroxybenzyl)maleate] |
| < 10 | O=C(O)/C(Cc1ccccc1)=C(/Cc1ccccc1)C(=O)O [Example 6, Disodium 2,3-dibenzylmaleate] |
| < 10 | O=C(O)/C(CCc1ccccc1)=C(/Cc1ccccc1)C(=O)O [Example 7, Disodium 2-benzyl-3-phenethylmaleate] |
| < 10 | O=C(O)/C(CCc1ccccc1)=C(/CCc1ccccc1)C(=O)O [Example 8, Disodium 2,3-diphenethylmaleate] |
| 30 to 100 | C/C(C(=O)O)=C(/C(=O)O)C(C)C [Example 9, Disodium 2-isopropyl-3-methylmaleate] |
| 10 to 30 | CC/C(C(=O)O)=C(/C(=O)O)C(C)C [Example 10, Disodium 3-ethyl-2-isopropylmaleate] |
| 10 to 30 | CC(C)/C(C(=O)O)=C(/C(=O)O)C(C)C [Example 11, Disodium 2,3-diisopropylmaleate] |
| 10 to 30 | CC(C)/C(C(=O)O)=C(\Cc1ccccc1)C(=O)O [Example 12, Disodium 3-benzyl-2-isopropylmaleate] |
| 10 to 30 | Cc1ccccc1C/C(C(=O)O)=C(/C(=O)O)C(C)C [Example 13, Disodium 2-isopropyl-3-(2-methylphenyl)methylmaleate] |
| < 10 | CC/C(C(=O)O)=C(/C(=O)O)C1CCCC1 [Example 14, Disodium 2-cyclopentyl-3-ethylmaleate] |
| < 10 | CC(C)/C(C(=O)O)=C(/C(=O)O)C1CCCC1 [Example 15, Disodium 2-cyclopentyl-3-isopropylmaleate] |
| < 10 | O=C(O)/C(Cc1ccccc1)=C(\C(=O)O)C1CCCC1 [Example 16, Disodium 3-benzyl-2-cyclopentylmaleate] |
| < 10 | O=C(O)/C(=C(\C(=O)O)C1CCCC1)C1CCCC1 [Example 17, Disodium 2,3-dicyclopentylmaleate] |
| < 10 | CC(C)/C(C(=O)O)=C(/C(=O)O)C1Cc2ccccc2C1 [Example 18, Disodium 2-(2,3-dihydro-1H-inden-2-yl)-3-isopropylmaleate] |
| < 10 | CC(C)/C(C(=O)O)=C(/C(=O)O)C1CCCCC1 [Example 19, Disodium 2-cyclohexyl-3-isopropylmaleate] |
| < 10 | CC(C)/C(C(=O)O)=C(/C(=O)O)[C@H]1CC[C@@H](O)CC1 [Example 21, Disodium 2-(cis-4-hydroxycyclohexyl)-3-isopropylmaleate] |
| 10 to 30 | CC(C)/C(C(=O)O)=C(/C(=O)O)C1CCOCC1 [Example 22, Disodium 3-isopropyl-2-(tetrahydropyran-4-yl)maleate] |

| IC50 [µM] | SMILES |
| --- | --- |
| 30 to 100 | CC(C)/C(C(=O)O)=C(\Cc1cccnc1)C(=O)O [Example 23, Disodium 2-isopropyl-3-[(pyridine-3-yl)methyl]maleate] |
| 30 to 100 | CC/C(C(=O)O)=C(\SC(C)C)C(=O)O [Example 24, Disodium 3-ethyl-2-isopropylthiomaleate] |
| 10 to 30 | CC(C)/C(C(=O)O)=C(\Cc1ccc(C(=O)O)cc1)C(=O)O [Example 25, Trisodium 2-(4-carboxybenzyl)-3-isopropylmaleate] |
| 10 to 30 | CC(C)/C(C(=O)O)=C(\Cc1ccc(C(N)=O)cc1)C(=O)O [Example 26, Disodium 2-(4-carbamoylbenzyl)-3-isopropylmaleate] |
| 10 to 30 | CC(C)/C(C(=O)O)=C(\Cc1ccc(C(=O)N2CCOCC2)cc1)C(=O)O [Example 27, Disodium 2-isopropyl-3-[4-(morpholine-1-carbonyl)benzyl]maleate] |
| 30 to 100 | CC(C)/C(C(=O)O)=C(\Cc1ccc(C(=O)N2CCC(O)CC2)cc1)C(=O)O [Example 28, Disodium 2-[4-(4-hydroxypiperidine-1-carbonyl)benzyl]-3-isopropylmaleate] |
| < 10 | CC(C)/C(C(=O)O)=C(\Cc1ccc(C(=O)NCC(N)=O)cc1)C(=O)O [Example 29, Disodium 2-[4-(2-amino-2-oxoethylcarbamoyl)benzyl]-3-isopropylmaleate] |
| < 10 | COc1ccc(C/C(C(=O)O)=C(/C(=O)O)C(C)C)cc1 [Example 30, Disodium 2-isopropyl-3-(4-methoxybenzyl)maleate] |
| 10 to 30 | CC(C)/C(C(=O)O)=C(\Cc1ccc(O)cc1)C(=O)O [Example 31, Trisodium 2-(4-oxidobenzyl)-3-isopropylmaleate] |
| < 10 | CC(C)/C(C(=O)O)=C(\Cc1ccc(OCC(=O)O)cc1)C(=O)O [Example 32] |
| < 10 | CC(C)/C(C(=O)O)=C(\Cc1ccc(OCC(N)=O)cc1)C(=O)O [Example 33, Disodium 2-[4-(2-amino-2-oxoethoxy)benzyl]-3-isopropylmaleate] |
| < 10 | CC(C)/C(C(=O)O)=C(\Cc1ccc(OCCN)cc1)C(=O)O [Example 34, Disodium 2-[4-(2-aminoethoxy)benzyl]-3-isopropylmaleate] |
| < 10 | CC(C)/C(C(=O)O)=C(\Cc1ccc(OCCn2ccnc2)cc1)C(=O)O [Example 35, Disodium 2-{4-[2-(1H-imidazol-1-yl)ethoxy]benzyl}-3-isopropylmaleate] |
| < 10 | CC(C)/C(C(=O)O)=C(\Cc1ccc(OC2CCNC2)cc1)C(=O)O (stereo not shown) [Example 36, Disodium 2-isopropyl-3-[4-(pyrrolidin-3-yloxy)benzyl]maleate] |
| 30 to 100 | CC(C)/C(C(=O)O)=C(\Cc1ccc(OCCNC(=N)N)cc1)C(=O)O [Example 37, Disodium 2-[4-(2-guanidinoethoxy)benzyl]-3-isopropyl maleate] |
| < 10 | O=C(O)/C(=C(\C(=O)O)[C@H]1CC[C@@H](O)CC1)C1CCCC1 [Example 38, Disodium 2-cyclopentyl-3-(cis-4-hydroxycyclohexyl)maleate] |
| < 10 | O=C(O)/C(=C(\C(=O)O)[C@H]1CC[C@@H](O)CC1)[C@H]1CC[C@@H](O)CC1 [Example 39, Disodium 2,3-bis(cis-4-hydroxycyclohexyl)maleate] |
| 30 to 100 | O=C(O)/C(=C(\C(=O)O)C1CCOCC1)C1CCOCC1 [Example 40, Disodium 2,3-bis(tetrahydro-2H-pyran-4-yl)maleate] |

— US9115079B2, “NDM inhibitor” (priority 2011, dated 2015)
